Laboratory results from patent US9993505B2, “Innervation of engineered structures” (WAKE FOREST UNIVERSITY HEALTH SCIENCES, priority 2012, dated 2018).

What was measured:
[1] = system: initially non-innervated internal anal sphincter (IAS) smooth muscle construct; test: Real time force generation of bioengineered IAS construct, initially non-innervated, placed 1 mm away from the innervated construct (Example 1); type: cell-based, rabbit
[2] = system: intrinsically innervated internal anal sphincter (IAS) smooth muscle construct; test: Real time force generation of bioengineered IAS construct, initially intrinsically innervated (Example 1); type: cell-based, rabbit
[3] = system: intrinsically innervated rabbit colon circular smooth muscle construct; test: Real time force generation of bioengineered colon smooth muscle construct, intrinsically innervated (Example 2); type: cell-based
[4] = system: initially non-innervated rabbit colon circular smooth muscle construct; test: Real time force generation of bioengineered colon smooth muscle construct, initially non-innervated (Example 2); type: cell-based

CN1[C@@H]2CC[C@H]1C[C@@H](OC(=O)C(CO)c1ccccc1)C2 (some centres unmarked) [atropine]
inhibition of acetylcholine-induced force generation by pre-treatment [1]: 75% | inhibition of acetylcholine-induced force generation by pre-treatment [2]: 90%

vasoactive intestinal peptide [VIP]
maximal relaxation induced by VIP ([3]; 1 μM VIP, innervated colon constructs): 145±15 μN | maximal relaxation induced by VIP ([4]; 1 μM VIP, non-innervated colon constructs): 120±18 μN

NC1=N[C@H](O)[C@H]2[C@H]3O[C@]4(O)O[C@@H]([C@@H](O)[C@@]2(N1)[C@@H]4O)[C@]3(O)CO [TTX, tetrodotoxin]
attenuation of peak maximal Ach contraction in the presence of TTX [3]: 50-60% | effect of TTX preincubation on response to EFS [3]: completely abolished | inhibition of VIP-induced relaxation in the presence of TTX [3]: 60% | inhibition of EFS-induced relaxation by pre-treatment [1]: completely inhibited | inhibition of acetylcholine-induced force generation by pre-treatment [1]: 40% | effect of TTX on EFS-induced relaxation [4]: completely blocked | effect of TTX on maximal Ach contraction [4]: reduced the maximal contraction | inhibition of VIP-induced relaxation in the presence of TTX [4]: 50% | inhibition of EFS-induced relaxation by pre-treatment [2]: completely inhibited | inhibition of acetylcholine-induced force generation by pre-treatment [2]: 58%

CC(=O)OCC[N+](C)(C)C [Acetylcholine, acetylcholine]
average contraction induced by Ach ([3]; 1 μM Ach, innervated colon constructs): 150±24 μN | force generation induced by acetylcholine ([1]; Acetylcholine 1 μM, day 20, initially non-innervated IAS construct): 80 μN | average contraction induced by Ach ([4]; 1 μM Ach, non-innervated colon constructs): 130±28 μN | force generation induced by acetylcholine ([2]; Acetylcholine 1 μM, day 20, innervated IAS construct): 153 μN

[Cl-].[K+] [KCl, potassium chloride]
average contraction induced by KCl [3]: 300±24 μN | average contraction induced by KCl [4]: 224±42 μN
